Test [1] deals with TH-positive dopaminergic neurons in the striatum. As to the kind of experiment: MPTP model of Parkinson's Disease, TH immunostaining of striatum. Format: in vivo. Particulars: MPTP-lesioned CD1 mice (30 mg/kg i.p. for 5 days), compound 4 mg/kg s.c. for 10 days, striatum at 18 days. On the procedure: MPTP lesioning of dopaminergic neurons in mice was used as an animal model of Parkinson's Disease. Four week old male CD1 white mice were dosed i.p. with 30 mg/kg of MPTP for 5 days. Test compounds (4 mg/kg), or vehicle, were administered s.c. along with the MPTP for 5 days, as well as for an additional 5 days following cessation of MPTP treatment. At 18 days following MPTP treatment, the animals were sacrificed and the striata were dissected and perfusion-fixed. Immunostaining was performed on saggital and coronal brain sections using anti-tyrosine hydroxylase […] to quantitate survival and recovery of dopaminergic neurons. In animals treated with MPTP and vehicle, a substantial loss of functional dopaminergic terminals was observed as compared to non-lesioned animals.

Test [2] concerns chick dorsal root ganglia. Briefly: Chick dorsal root ganglion cultures and neurite outgrowth. Format: cell-based. Particulars: Gallus gallus, 48 h; read-out: ED50 (the source's name). Here is the method: Dorsal root ganglia were dissected from chick embryos of ten day gestation. Whole ganglion explants were cultured on thin layer Matrigel-coated 12 well plates with Liebovitz L15 plus high glucose media supplemented with 2 mM glutamine and 10% fetal calf serum, and also containing 10 μM cytosine β-D arabinofuranoside (Ara C) at 37° C. in an environment containing 5% CO2. Twenty-four hours later, the DRGs were treated with various immunophilin ligands. Forty-eight hours after drug treatment, the ganglia were visualized under phase contrast or Hoffman Modulation contrast with a Zeiss Axiovert inverted microscope. Photomicrographs of the explants were made, and neurite outgrowth was quantitated. Neurites longer than the DRG diameter were counted as positive, with total number of neurites quantitated per each experimental condition. Three to four DRGs are cultured per well, and each treatment was performed in duplicate.
The data for these experiments for representative compounds are presented in the “ED50” column of Table I.

The target of the next test is FKBP12 (Homo sapiens, UniProt P62942). As to the kind of experiment: Ki test procedure: inhibition of peptidyl-prolyl isomerase (rotamase) activity, chymotrypsin-coupled assay. Format: biochemical. Particulars: apparent Ki, rotamase activity of FKBP, substrate N-succinyl-Ala-Ala-Pro-Phe-p-nitroanilide. The source says: The inhibition of the prolyl peptidyl cis-trans isomerase activity of FKBP may be measured as an indicator of this affinity.
Sequence of FKBP12 (P62942 whole entry, species assumed): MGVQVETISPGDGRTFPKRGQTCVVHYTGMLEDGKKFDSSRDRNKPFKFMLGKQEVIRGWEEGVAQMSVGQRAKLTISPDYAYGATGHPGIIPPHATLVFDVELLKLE
Inhibition of the peptidyl-prolyl isomerase (rotamase) activity of the inventive compounds can be evaluated by known methods described in the literature (Harding, et al., Nature, 1989, 341:758-760; Holt et al. J. Am. Chem. Soc., 115:9923-9938). These values are obtained as apparent Ki's and are presented in Table I. The cis-trans isomerization of an alanine-proline bond in a model substrate, N-succinyl-Ala-Ala-Pro-Phe-p-nitroanilide, is monitored spectrophotometrically in a chymotrypsin-coupled assay, which releases para-nitroanilide from the trans form of the substrate. The inhibition of this reaction caused by the addition of different concentrations of inhibitor is determined, and the data is analyzed as a change in first-order rate constant as a function of inhibitor concentration to yield the apparent Ki values.
In a plastic cuvette are added […] of ice cold assay buffer (25 mM HEPES, pH 7.8, 100 mM NaCl), […] of FKBP (2.5 mM in 10 mM Tris-Cl pH 7.5, 100 mM NaCl, 1 mM dithiothreitol), […] of chymotrypsin (50 mg/ml in 1 mM HCl) and […] of test compound at various concentrations in dimethyl sulfoxide. The reaction is initiated by the addition of 5 mL of substrate (succinyl-Ala-Phe-Pro-Phe-para-nitroanilide, 5 mg/mL in 2.35 mM LiCl in trifluoroethanol).
The absorbance at 390 nm versus time is monitored for 90 seconds using a spectrophotometer and the rate constants are determined from the absorbance versus time data files.

The structures appear in SMILES notation.

Regarding `O=C(OCCCCc1ccccc1)C1CCCCN1S(=O)(=O)c1ccccc1` (stereo not drawn) [4-phenyl-1-butyl-N-(benzenesulfonyl) pipecolate], in test [1], the “% Rescue, TH Immunostaining at 4 mg/kg, s.c.” value (“% Rescue, TH Immunostaining” below) is 29.22%.

With `O=C(OCCCc1cccnc1)[C@@H]1CCCN1S(=O)(=O)Cc1ccccc1` [Compound 1, 3-(3-Pyridyl)-1-propyl(2S)-N-(α-toluenesulfonyl)pyrrolidine-2-carboxylate], in test [1], the “% Rescue, TH Immunostaining” value was 44.31%. For the same compound, the EC50 in test [2] amounted to 0.002 nM. For the same compound, the Ki at FKBP12 worked out at 72 nM.

As for `O=C(OCCCCc1ccccc1)C1CCCCN1S(=O)(=O)Cc1ccccc1` (stereo not drawn) [Compound 2, 4-Phenyl-1-butyl 1-(α-tolylsulfonyl)-2-pipecolinate], the “% Rescue, TH Immunostaining” value in test [1] was 38.00%. Moreover, the EC50 in test [2] stood at 0.031 nM. In addition, on FKBP12, the Ki was 34 nM.

Turning to `O=C(OC(CCc1ccccc1)CCc1ccccc1)C1CCCCN1S(=O)(=O)Cc1ccccc1` (stereo not drawn) [Compound 3, 1,5-Diphenyl-3-pentyl N-(α-toluenesulfonyl)-pipecolate], the EC50 in test [2] is 0.133 nM. In addition, the Ki on FKBP12 was found to be 107 nM.
